According to PMC6508583 (Journal of the American Chemical Society, 2019):
≈ marks a conversion by molar mass, not a printed value. Where “and” joins values, the source holds several entries; their conditions need not be identical. Identical values can stand only once. Like-named read-outs stand apart in the source and are kept apart here.

Key:
[1] = test system: wild-type bacterial ribosome; assay: Cell-free translation assay, wild-type bacterial ribosome; type: biochemical; conditions: in vitro translation inhibition
[2] = test system: Mit13 hybrid ribosome (decoding A site of the human mitochondrial ribosome); type: biochemical; conditions: for Selectivity Mit 13: Mit13 over wt bacterial ribosome; for IC50 Mit13: in vitro translation inhibition, Mit13 hybrid ribosome
[3] = test system: A1555G mutant mitochondrial hybrid ribosome; type: biochemical, human; conditions: for Selectivity A1555G: A1555G over wt bacterial ribosome; for IC50 A1555G: in vitro translation inhibition, A1555G mutant mitochondrial hybrid ribosome
[4] = test system: Cyt14 hybrid ribosome (decoding A site of the human cytoplasmic ribosome); type: biochemical; conditions: for Selectivity Cyt14: Cyt14 over wt bacterial ribosome; for IC50 Cyt 14: in vitro translation inhibition, Cyt14 hybrid ribosome
MRSA = assay: Antibacterial activity against reference strains: MRSA; type: cell-based; conditions: for Antibacterial activity (MIC) MRSA AG038: strain AG038; for Antibacterial activity (MIC) MRSA AG042: strain AG042 carries the AAC(6)’, ANT(4’,4’’) and APH(3’) genes
K. pneumoniae = assay: Antibacterial activity against reference strains: K. pneumoniae; type: cell-based; conditions: strain AG215
E. cloacae = assay: Antibacterial activity against reference strains: E. cloacae; type: cell-based; conditions: for Antibacterial activity (MIC) E. cloacae AG290: strain AG290
A. baumannii = assay: Antibacterial activity against reference strains: A. baumannii; type: cell-based; conditions: strain AG225
[5] = test system: E. coli carrying specific resistance determinants; assay: Activity against wild-type and engineered E. coli carrying specific AMEs or RMTs; type: cell-based; conditions: for Activity (MIC) E. coli AG006: strain AG006, WT; for Activity (MIC) E. coli AG007: strain AG007, AAC(3); for Activity (MIC) E. coli AG008: strain AG008, ANT(2’’); for Activity (MIC) E. coli AG009: strain AG009, AAC(6’); for Activity (MIC) E. coli AG036: strain AG036, ANT(4′,4′′); for Activity (MIC) E. coli AG103: strain AG103, armA; for Activity (MIC) E. coli AG105: strain AG105, AAC(2′); for Activity (MIC) E. coli AG166: strain AG166, APH(3′); for MIC: Escherichia coli
[6] = test system: NIH 3T3 mouse embryonic fibroblast cells; type: cell-based
E. coli [7] = assay: Antibacterial activity against reference strains: E. coli; conditions: for Antibacterial activity (MIC) E. coli AG001: strain AG001; for Antibacterial activity (MIC) E. coli AG003: strain AG003 carries the AAC(3) gene; for MIC: Escherichia coli
P. aeruginosa = assay: Antibacterial activity against reference strains: P. aeruginosa; conditions: for Antibacterial activity (MIC) P. aeruginosa AG031: strain AG031 carries the APH(3’) gene
[8] = test system: E coli 70S ribosome (helix 44, A1408); assay: Quantitative dimethyl sulfate footprinting of the 70S ribosome; type: binding; conditions: read-out: apparent Kd; DMS footprinting, % protection of N1 of A1408, E. coli 70S ribosome
[9] = test system: wild-type E. coli clinical isolates; assay: MIC distribution, clinical wild-type E. coli isolates; type: cell-based; conditions: panel of wild-type clinical isolates
[10] = test system: wild-type K. pneumoniae clinical isolates; assay: MIC distribution, clinical wild-type K. pneumoniae isolates; type: cell-based; conditions: panel of wild-type clinical isolates
[11] = test system: wild-type E. cloacae clinical isolates; assay: MIC distribution, clinical wild-type E. cloacae isolates; type: cell-based; conditions: panel of wild-type clinical isolates
[12] = test system: E. coli clinical isolates carrying two or more resistance determinants; assay: Activity against E. coli clinical isolates with multiple resistance determinants; type: cell-based
[13] = test system: K. pneumoniae clinical isolates carrying two or more resistance determinants; type: cell-based; conditions: AAC(3), AAC(6’)
[14] = test system: E. cloacae clinical isolates carrying two or more resistance determinants; type: cell-based; conditions: AAC(6’)
Mycobacterium abscessus = assay: microbe, parasite or virus in culture; type: cell-based
[15] = test system: Mycobacterium tuberculosis clinical isolates; assay: microbe, parasite or virus in culture; type: cell-based; conditions: clinical isolates
E coli = assay: Neutropenic mouse thigh infection model; type: in vivo; conditions: dose 3 mg.kg^−1
E. coli [16] = assay: Neutropenic mouse E. coli septicemia model; type: in vivo
[17] = test system: Mycobacterium smegmatis wild type; assay: Antibacterial activity, wild-type M. smegmatis

SMILES: CCSC1C(CO)OC(OC2C(N)CC(N)C(O)C2OC2OC(CO)C(OC3OC(CN)C(O)C(O)C3N)C2O)C(N)C1O (stereo not shown) [Compound 4, 4’-deoxy-4’-ethylthioparomomycin]
- IC50 wt [1]: 0.04 mg/L (≈ 0.0606 µM)
- Selectivity Mit 13 [2]: 2775
- IC50 Mit13 [2]: 111 mg/L (≈ 168 µM)
- Selectivity A1555G [3]: 1150
- IC50 A1555G [3]: 46 mg/L (≈ 69.7 µM)
- Selectivity Cyt14 [4]: 1500
- IC50 Cyt 14 [4]: 60 mg/L (≈ 90.9 µM)
- Antibacterial activity (MIC) MRSA AG038 (MRSA): 4 mg/L
- Antibacterial activity (MIC) MRSA AG042 (MRSA): 2 to 4 mg/L
- Antibacterial activity (MIC) K. pneumoniae AG215 (K. pneumoniae): 2 mg/L
- Antibacterial activity (MIC) E. cloacae AG290 (E. cloacae): 2 to 4 mg/L
- Antibacterial activity (MIC) A. baumannii AG225 (A. baumannii): 4 mg/L
- Activity (MIC) E. coli AG006 [5]: 1 to 2 mg/L
- Activity (MIC) E. coli AG007 [5]: 4 mg/L
- Activity (MIC) E. coli AG008 [5]: 1 mg/L
- Activity (MIC) E. coli AG009 [5]: 4 mg/L
- Activity (MIC) E. coli AG036 [5]: 1 to 2 mg/L
- Activity (MIC) E. coli AG103 [5]: 8 mg/L
- Activity (MIC) E. coli AG105 [5]: 2 to 4 mg/L
- Activity (MIC) E. coli AG166 [5]: 4 mg/L
- loss of cell viability [6]: only minimal loss of cell viability
- Antibacterial activity (MIC) E. coli AG001 (E. coli [7]): 8 mg/L
- Antibacterial activity (MIC) E. coli AG003 (E. coli [7]): 8 mg/L
- Antibacterial activity (MIC) P. aeruginosa AG031 (P. aeruginosa): 32 mg/L

SMILES: CCC[C@H]1[C@H](O)[C@@H](N)[C@@H](O[C@H]2[C@H](O[C@@H]3O[C@H](CO)[C@@H](O[C@H]4O[C@@H](CN)[C@@H](O)[C@H](O)[C@H]4N)[C@H]3O)[C@@H](O)[C@H](N)C[C@@H]2N)O[C@@H]1CO [Compound 5, 4’-deoxy-4’-propylparomomycin]
- IC50 wt [1]: 0.03 mg/L (≈ 0.0467 µM)
- Selectivity Mit 13 [2]: 5567
- IC50 Mit13 [2]: 167 mg/L (≈ 260 µM)
- Selectivity A1555G [3]: 1733
- IC50 A1555G [3]: 52 mg/L (≈ 81 µM)
- Selectivity Cyt14 [4]: 2133
- IC50 Cyt 14 [4]: 64 mg/L (≈ 99.7 µM)
- Antibacterial activity (MIC) MRSA AG038 (MRSA): 1 to 2 mg/L
- Antibacterial activity (MIC) MRSA AG042 (MRSA): 2 mg/L
- Antibacterial activity (MIC) K. pneumoniae AG215 (K. pneumoniae): 0.5 mg/L
- Antibacterial activity (MIC) E. cloacae AG290 (E. cloacae): 0.5 to 1 mg/L
- Antibacterial activity (MIC) A. baumannii AG225 (A. baumannii): 2 mg/L
- Kd [8]: 0.34 ± 0.05 µM
- Activity (MIC) E. coli AG006 [5]: 0.5 to 1 mg/L
- Activity (MIC) E. coli AG007 [5]: 2 mg/L
- Activity (MIC) E. coli AG008 [5]: 0.5 to 1 mg/L
- Activity (MIC) E. coli AG009 [5]: 1 to 2 mg/L
- Activity (MIC) E. coli AG036 [5]: 1 mg/L
- Activity (MIC) E. coli AG103 [5]: 2 mg/L
- Activity (MIC) E. coli AG105 [5]: 1 mg/L
- Activity (MIC) E. coli AG166 [5]: 1 to 2 mg/L
- MIC90 E. coli [9]: 2 mg/L (≈ 3.12 µM)
- MIC90 K. pneumoniae [10]: 1 mg/L (≈ 1.56 µM)
- MIC90 E. cloacae [11]: 1 mg/L (≈ 1.56 µM)
- Activity (MIC) E. coli isolate 201430298 ([12]; AAC(3), AAC(6’)): 1 mg/L
- Activity (MIC) E. coli isolate 2014251408 ([12]; AAC(3), AAC(6’)): 2 mg/L
- Activity (MIC) E. coli isolate 2014405344 ([12]; AAC(3), APH(3’), RmtB): 4 mg/L
- Activity (MIC) E. coli isolate 201441114 ([12]; AAC(6’), ANT(2’’)): 1 mg/L
- Activity (MIC) K. pneumoniae isolate 201440494 [13]: 0.5 mg/L
- Activity (MIC) K. pneumoniae isolate 2014310114 [13]: 0.25 mg/L
- Activity (MIC) K. pneumoniae isolate 2014310108 ([13]; RmtB): 1 mg/L
- Activity (MIC) E. cloacae isolate 201435487 ([14]; AAC(3)): 0.5 mg/L
- Activity (MIC) E. cloacae isolate 201333207 ([14]; AAC(3), APH(3’)): 0.5 mg/L
- Activity (MIC) E. cloacae isolate 201385168 ([14]; AAC(3), RmtC): 1 mg/L
- Activity (MIC) E. cloacae isolate 201430601 ([14]; ANT(2’’)): 0.5 mg/L
- MIC M. abscessus, AAC(2’) gene deleted (Mycobacterium abscessus; AAC(2’) gene deleted): 4 mg/L and 2 mg/L
- MIC M. abscessus (Mycobacterium abscessus; AAC(2’) gene present): 4 mg/L (≈ 6.23 µM)
- MIC M. tuberculosis clinical isolates [15]: 1 mg/L (≈ 1.56 µM)
- log reduction in colony-forming units (CFUs) compared to vehicle (E coli): 1.5 log
- reduction of bacterial burden in the blood, more than the parent paromomycin at the same dose level (E. coli [16]; 4 mg.kg^−1): 1 log
- reduction of bacterial burden in the blood (E. coli [16]; 4 mg.kg^−1 dose): approximately 1.5 log units
- loss of cell viability [6]: only minimal loss of cell viability
- Antibacterial activity (MIC) Wild-type M. smegmatis [17]: 0.16 mg/L
- Antibacterial activity (MIC) E. coli AG001 (E. coli [7]): 1 to 2 mg/L
- Antibacterial activity (MIC) E. coli AG003 (E. coli [7]): 1 to 2 mg/L
- Antibacterial activity (MIC) P. aeruginosa AG031 (P. aeruginosa): 8 mg/L
- Antibacterial activity (MIC) P. aeruginosa AG220 (P. aeruginosa; strain AG220 carries the APH(3’) gene): 2 to 4 mg/L

SMILES: CN[C@@H]1[C@@H](O)[C@@H](O[C@@H]2[C@@H](O)[C@H](O[C@H]3OC(CNCCO)=CC[C@H]3N)[C@@H](N)C[C@H]2NC(=O)[C@@H](O)CCN)OC[C@]1(C)O [Plazomicin, reference compound]
- IC50 wt [1]: 0.06 mg/L (≈ 0.101 µM)
- Selectivity Mit 13 [2]: 833
- IC50 Mit13 [2]: 50 mg/L (≈ 84.4 µM)
- Selectivity A1555G [3]: 47
- IC50 A1555G [3]: 2.8 mg/L (≈ 4.72 µM)
- Selectivity Cyt14 [4]: 6983
- IC50 Cyt 14 [4]: 419 mg/L (≈ 707 µM)
- MIC (MRSA; Staphylococcus aureus, MRSA, read-out: Antibacterial activity (MIC) MRSA AG038): 2 mg/L (≈ 3.37 µM)
- MIC (E. cloacae; Enterobacter cloacae, read-out: Antibacterial activity (MIC) E. cloacae AG290): 0.5 mg/L (≈ 0.844 µM)
- MIC ([5]; read-out: Activity (MIC) E. coli AG006): 0.5 to 1 mg/L (≈ 0.844 to 1.69 µM)
- MIC ([5]; read-out: Activity (MIC) E. coli AG007): 2 mg/L (≈ 3.37 µM)
- MIC ([5]; read-out: Activity (MIC) E. coli AG008): 0.5 to 1 mg/L (≈ 0.844 to 1.69 µM)
- MIC ([5]; read-out: Activity (MIC) E. coli AG009): 2 mg/L (≈ 3.37 µM)
- MIC ([5]; read-out: Activity (MIC) E. coli AG036): 1 mg/L (≈ 1.69 µM)
- MIC ([5]; read-out: Activity (MIC) E. coli AG103): > 128 mg/L
- MIC ([5]; read-out: Activity (MIC) E. coli AG105): 1 to 2 mg/L (≈ 1.69 to 3.37 µM)
- MIC ([5]; read-out: Activity (MIC) E. coli AG166): 1 mg/L (≈ 1.69 µM)
- log reduction in colony-forming units (CFUs) compared to vehicle (E coli): similar
- MIC (E. coli [7]; read-out: Antibacterial activity (MIC) E. coli AG001): 2 mg/L (≈ 3.37 µM)
- MIC (E. coli [7]; read-out: Antibacterial activity (MIC) E. coli AG003): 2 to 4 mg/L (≈ 3.37 to 6.75 µM)
